# From US12187702B2, “Sulfonamideurea compounds” (Inflazome Limited, priority 2018, dated 2025)
# pIC50: −log10 of the molar value. Where a name gives a salt, the structure may show the parent alone.
# Assays:
# NLRP3 [1] = biological target: T1, NLRP3 (Homo sapiens, UniProt Q96P20); test: Human whole blood IL-1β release assay (LPS + nigericin, AlphaLisa); type: cell-based; set-up: Plate out 80 μl of whole blood containing 1 μg/ml of LPS; from tissue; host or cells: human whole blood from healthy donors
# Outline: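 Healthy-donor Li-heparin whole blood containing 1 μg/ml LPS incubated with compound (8-point half-log dilution, 10 μM top) for 3 h at 37 °C, then with 10 μM nigericin for 1 h. Supernatant IL-1β measured by AlphaLisa; IC50 from 4-parameter variable-slope fit.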
# [2] = PK, intravenous administration; type: in vivo, male Sprague Dawley rats; conditions: male, Sprague Dawley, plasma, rat; for clearance / half-life: dose per compound as in Table 3; for AUC: dose per compound as in Table 3 (0.08-1.86 mg/kg); for Vd: dose per compound as in Table 3, read-out: Vdss
# Description: (§1) Pharmacokinetic parameters were determined in male Sprague Dawley rats (Charles River, UK, 250-350 g; or Vital River Laboratory Animal Technology Co Ltd, Beijing, China, 7-9 weeks old). Animals were individually housed during the study and maintained under a 12 h light/dark cycle.
# (§2) For intravenous administration, compounds were formulated as a solution in water or DMSO:PBS [10:90] in 2 mL/kg dosing volume and administered via tail or jugular vein. For oral administration, compounds were formulated as a solution in 0.5% w/v methyl cellulose in water in 5 mL/kg dosing volume and administered orally.
# (§3) Serial blood samples (about 120-300 μL) were taken from each animal at each of 8 time-points post dose (0.083, 0.25, 0.5, 1, 2, 4, 8 and 24 h) or at each of 12 time-points post dose (0.03, 0.1, 0.17, 0.25, 0.5, 1, 2, 4, 6, 8, 12 and 24 h) or pre-dose and at each of 9 time-points post dose (0.25, 0.5, 1, 2, 4, 6, 8, 12 and 24 h). Samples were held on ice for no longer than 30 minutes before centrifugation (10,000 rpm (8,385 g) for 3 minutes; or 5,696 rpm (3,000 g) for 15 minutes) for plasma generation. Plasma was frozen on dry ice prior to bioanalysis. PK parameters were generated from LC-MS/MS data using Dotmatics or Phoenix WinNonlin 6.3 software.
# NLRP3 [3] = biological target: T1, NLRP3; test: THP-1 cells pyroptosis assay (LPS + nigericin, resazurin read-out); type: cell-based; set-up: Seed THP-1 cells (25,000 cells/well) containing 1.0 μg/ml LPS; host or cells: THP-1 cells
# Outline: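 THP-1 cells (25,000/well) primed with 1 μg/ml LPS in serum-free RPMI, treated 3 h with compound (8-point half-log series, 10 μM top, 0.1% DMSO), then 5 μM nigericin for 1 h at 37 °C. Viability read by 100 μM resazurin fluorescence after 1-2 h; IC50 from 4-parameter fit.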
# PK, oral administration = type: in vivo, male Sprague Dawley rats; conditions: male, Sprague Dawley, plasma, rat, 3 mg/kg
# Description: as §1, §2, §3
# [4] = human whole blood, 1 μg/ml LPS, 10 μM nigericin, IL-1β release, read-out: HWB IC50
# [5] = THP-1 cells, 1 μg/ml LPS, 5 μM nigericin, NLRP3 inhibitory activity, read-out: THP IC50
# T1 sequence (Q96P20 whole entry): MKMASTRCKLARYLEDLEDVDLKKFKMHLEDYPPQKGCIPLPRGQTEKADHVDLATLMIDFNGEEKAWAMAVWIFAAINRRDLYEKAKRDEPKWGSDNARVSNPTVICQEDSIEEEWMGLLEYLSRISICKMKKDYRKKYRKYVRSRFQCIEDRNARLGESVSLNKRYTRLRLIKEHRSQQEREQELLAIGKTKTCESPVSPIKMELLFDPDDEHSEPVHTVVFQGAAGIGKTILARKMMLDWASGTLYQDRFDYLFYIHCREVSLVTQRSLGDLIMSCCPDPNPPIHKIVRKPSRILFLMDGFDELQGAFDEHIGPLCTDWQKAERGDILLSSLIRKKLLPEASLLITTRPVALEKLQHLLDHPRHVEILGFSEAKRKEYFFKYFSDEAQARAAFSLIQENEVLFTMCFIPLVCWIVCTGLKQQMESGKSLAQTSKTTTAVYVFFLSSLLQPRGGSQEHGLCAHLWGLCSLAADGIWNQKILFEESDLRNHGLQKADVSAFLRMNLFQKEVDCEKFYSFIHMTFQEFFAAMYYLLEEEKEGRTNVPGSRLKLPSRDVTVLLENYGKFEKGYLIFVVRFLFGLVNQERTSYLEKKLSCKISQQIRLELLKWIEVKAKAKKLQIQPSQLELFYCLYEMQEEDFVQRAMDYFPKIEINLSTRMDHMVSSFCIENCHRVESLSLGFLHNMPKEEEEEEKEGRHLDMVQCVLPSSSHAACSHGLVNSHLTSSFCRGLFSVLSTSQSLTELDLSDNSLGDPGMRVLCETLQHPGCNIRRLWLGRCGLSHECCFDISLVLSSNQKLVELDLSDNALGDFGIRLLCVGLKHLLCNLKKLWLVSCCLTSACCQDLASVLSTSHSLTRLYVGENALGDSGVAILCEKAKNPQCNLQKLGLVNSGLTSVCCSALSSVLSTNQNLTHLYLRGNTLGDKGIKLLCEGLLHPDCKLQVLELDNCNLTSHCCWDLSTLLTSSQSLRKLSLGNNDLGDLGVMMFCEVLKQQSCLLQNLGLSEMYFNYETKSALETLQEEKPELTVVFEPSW
SMILES,pIC50 (NLRP3 [1]; [4]),clearance [2],half-life [2],AUC [2],Vd [2],pIC50 (NLRP3 [3]; [5]),"AUC (PK, oral administration)","CL/F (PK, oral administration)","Cmax (PK, oral administration)","Tmax (PK, oral administration)","bioavailability (PK, oral administration)","half-life (PK, oral administration)",pIC50 (NLRP3 [1]),pIC50 (NLRP3 [3])
"CN(C)CCN(C)S(=O)(=O)NC(=O)Nc1c2c(cc3c1CCC3)CCC2 [Example 6, potassium salt]",> 6.30,2.3 mL/min/kg,2.7 h,7270 ng·h/mL,0.35 L/kg,> 6.30,,,,,,,,
"CC(C)N1CCC(N(C)S(=O)(=O)NC(=O)Nc2c3c(cc4c2CCC4)CCC3)C1 (stereo not shown) [Example 36, 3-(N-(1-isopropylpyrrolidin-3-yl)-N-methylsulfamoyl)-1-(1,2,3,5,6,7-hexahydro-s-indacen-4-yl)urea, potassium salt]",> 6.00,2.8 mL/min/kg,1.1 h,5910 ng·h/mL,0.23 L/kg,> 6.30,,,,,,,,
"COc1cc(-c2ccc3c(c2NC(=O)NS(=O)(=O)N(C)[C@H]2CCN(C)C2)CCC3)ccn1 [Example 111, (S)-3-(N-methyl-N-(1-methylpyrrolidin-3-yl)sulfamoyl)-1-(5-(2-methoxypyridin-4-yl)-2,3-dihydro-1H-inden-4-yl)urea, potassium salt]",> 6.30,17 mL/min/kg,4.8 h,979 ng·h/mL,1.3 L/kg,> 6.30,1380 ng·h/mL,38 mL/min/kg,318 ng/mL,0.67 h,47%,4 h,,
COc1cc(-c2ccc3c(c2NC(=O)NS(=O)(=O)N2CC4CCN(C)C4C2)CCC3)ccn1 (stereo not shown) [Example 106],,6 mL/min/kg,5.61 h,5150 ng·h/mL,0.84 L/kg,,,,,,,,,
"COc1cc(-c2ccc3c(c2NC(=O)NS(=O)(=O)N(C)[C@@H]2CCN(C)C2)CCC3)ccn1 [Example 110, (R)-3-(N-Methyl-N-(1-methylpyrrolidin-3-yl)sulfamoyl)-1-(5-(2-methoxypyridin-4-yl)-2,3-dihydro-1H-inden-4-yl)urea, potassium salt]",> 6.30,20 mL/min/kg,3.9 h,835 ng·h/mL,1.6 L/kg,> 6.30,1020 ng·h/mL,50 mL/min/kg,277 ng/mL,0.67 h,41%,3.4 h,,
"CN1CCCCC1CNS(=O)(=O)NC(=O)Nc1c2c(cc3c1CCC3)CCC2 (stereo not shown) [Example 20, 3-(N-((1-Methylpiperidin-2-yl)methyl)sulfamoyl)-1-(1,2,3,5,6,7-hexahydro-s-indacen-4-yl)urea, potassium salt]",> 6.30,7.1 mL/min/kg,1.2 h,2360 ng·h/mL,0.4 L/kg,> 6.30,,,,,,,,
"CN1CCC(N(C)S(=O)(=O)NC(=O)Nc2c3c(cc4c2CCC4)CCC3)C1 (stereo not shown) [Example 11, 3-(N-Methyl-N-(1-methylpyrrolidin-3-yl)sulfamoyl)-1-(1,2,3,5,6,7-hexahydro-s-indacen-4-yl)urea, potassium salt]",> 6.30,2.9 mL/min/kg,2.7 h,5660 ng·h/mL,0.59 L/kg,> 6.30,,,,,,,,
"CN1CC[C@@H](N(C)S(=O)(=O)NC(=O)Nc2c3c(cc4c2CCC4)CCC3)C1 [Example 66, 3-((R)—N-Methyl-N-(1-methylpyrrolidin-3-yl)sulfamoyl)-1-(1,2,3,5,6,7-hexahydro-s-indacen-4-yl)urea, potassium salt]",> 6.30,3.7 mL/min/kg,3.44 h,6760 ng·h/mL,0.43 L/kg,> 6.30,,,,,,,,
"O=C(Nc1c2c(cc3c1CCC3)CCC2)NS(=O)(=O)N1CC2CCC(C1)N2C1CC1 [Example 75, 8-Cyclopropyl-N-((1,2,3,5,6,7-hexahydro-s-indacen-4-yl)carbamoyl)-3,8-diazabicyclo[3.2.1]octane-3-sulfonamide, potassium salt]",,,,,,,,,,,,,> 5.30,> 6.30
"CN1C2CCC1CN(S(=O)(=O)NC(=O)Nc1c3c(cc4c1CCC4)CCC3)C2 [Example 14, N-((1,2,3,5,6,7-Hexahydro-s-indacen-4-yl)carbamoyl)-8-methyl-3,8-diazabicyclo[3.2.1]octane-3-sulfonamide, potassium salt]",> 6.30,,,,,> 6.30,,,,,,,,
"CN1CCC2CN(S(=O)(=O)NC(=O)Nc3c4c(cc5c3CCC5)CCC4)CC21 (stereo not shown) [Example 96, N-((1,2,3,5,6,7-Hexahydro-s-indacen-4-yl)carbamoyl)-1-methylhexahydropyrrolo[3,4-b]pyrrole-5(1H)-sulfonamide, potassium salt]",> 6.30,5.7 mL/min/kg,1.14 h,5150 ng·h/mL,0.45 L/kg,> 6.30,,,,,,,,
"CN1CCC2CCN(S(=O)(=O)NC(=O)Nc3c4c(cc5c3CCC5)CCC4)CC21 (stereo not shown) [Example 98, N-((1,2,3,5,6,7-Hexahydro-s-indacen-4-yl)carbamoyl)-1-methyloctahydro-6H-pyrrolo[2,3-c]pyridine-6-sulfonamide]",> 5.30,,,,,> 5.30,,,,,,,,
"CN1CC[C@@H](NS(=O)(=O)NC(=O)Nc2c3c(cc4c2CCC4)CCC3)C1 [Example 89, 3-((R)—N-(1-Methylpyrrolidin-3-yl)sulfamoyl)-1-(1,2,3,5,6,7-hexahydro-s-indacen-4-yl)urea, potassium salt]",> 6.30,,,,,> 6.30,,,,,,,,
"CN1CC(CN(C)S(=O)(=O)NC(=O)Nc2c3c(cc4c2CCC4)CCC3)C1 [Example 84, 3-(N-Methyl-N-((1-methylazetidin-3-yl)methyl)sulfamoyl)-1-(1,2,3,5,6,7-hexahydro-s-indacen-4-yl)urea, potassium salt]",> 6.00,,,,,> 6.30,,,,,,,,
"CC(C)N1C2CCC1CN(S(=O)(=O)NC(=O)Nc1c3c(cc4c1CCC4)CCC3)C2 [Example 29, N-((1,2,3,5,6,7-Hexahydro-s-indacen-4-yl)carbamoyl)-8-isopropyl-3,8-diazabicyclo[3.2.1]octane-3-sulfonamide, potassium salt]",> 6.30,,,,,> 6.30,,,,,,,,
"CN(C)CCNS(=O)(=O)NC(=O)Nc1c2c(cc3c1CCC3)CCC2 [Example 8, 3-(N-(2-(Dimethylamino)ethyl)sulfamoyl)-1-(1,2,3,5,6,7-hexahydro-s-indacen-4-yl)urea]",> 6.30,7.3 mL/min/kg,4 h,2290 ng·h/mL,0.61 L/kg,> 6.00,,,,,,,,
